{
  "source": "patent US8409600B2",
  "about": "“Methods for prevention and/or treatment of capsular contracture” (J&E Solutions, LLC, priority 2009, dated 2013)",
  "system": "breast capsular contracture",
  "assay": "Clinical cases: topical treatment of breast capsular contracture (Baker grade)",
  "assay_type": "in vivo, human",
  "settings": "Patient #1, Aleve and massage after first revision (bilateral Grade 3 capsular contracture)",
  "source_text": "The methods of the present invention for prevention of capsular contracture comprise topical application of the composition using the following steps: • Wash and dry the affected area (that is, the skin surrounding the implant or the skin over the capsular contracture) prior to use. • Apply the composition daily (use sparingly) with vigorous massage to affected area. If necessary, exert compression or pressure when massaging to break up existing capsule. Enhanced absorption is obtained with application of the composition following a hot shower. Occlusive dressing (hydrogel), or tight clothing (sports bras), will also enhance the result. Continued daily use will yield optimal results. […] Optimal results are best maintained with daily continued application. One particularly useful embodiment of the invention involves the use of the topical compositions for the treatment/prevention of capsular contracture in breast surgery (e.g., breast implants). There are four grades of breast capsular contracture—Baker grades I through IV. The Baker grading is as follows: • Grade I—the breast is normally soft and looks natural • Grade II—the breast is a little firm but looks normal • Grade III—the breast is firm and looks abnormal • Grade IV—the breast is hard, painful, and looks abnormal. • of developed or is at risk of developing capsular contracture a topical composition. Clinical Cases Patient #1",
  "data": [
    {"smiles": "COc1ccc2cc([C@H](C)C(=O)O)ccc2c1", "note": "[Aleve, naproxen sodium]", "values": [
      {"measurement": "response of capsular contracture to treatment", "result": "without result"}
    ]}
  ]
}
